Target: T1, Human TREX1 enzyme (amino acids 1-242) (Homo sapiens, UniProt Q9NSU2)
T1 construct: Human TREX1 enzyme (amino acids 1-242)
T1 sequence (Q9NSU2 1-242): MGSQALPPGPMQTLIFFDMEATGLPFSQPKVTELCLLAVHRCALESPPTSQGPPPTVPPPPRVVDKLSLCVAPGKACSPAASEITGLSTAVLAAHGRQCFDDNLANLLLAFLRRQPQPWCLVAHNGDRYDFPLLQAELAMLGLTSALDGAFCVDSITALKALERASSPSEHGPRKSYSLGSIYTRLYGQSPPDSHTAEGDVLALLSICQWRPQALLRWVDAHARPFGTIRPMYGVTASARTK
Experiment: Human TREX1 enzymatic assay with dsDNA native oligonucleotide (Picogreen fluorescence)
Assay type: biochemical
Details: 2 mM dithiothreitol in assay buffer; 50 nM dsDNA oligonucleotide; 30 min preincubation at 25° C.; read-out: TREX1/Human + DTT IC50 AVG
Experimental: Example A. Human TREX1 Enzymatic Assay with dsDNA Native Oligonucleotide
Human TREX1 enzyme (amino acids 1-242) was diluted in assay buffer (20 mM Tris pH 7.7, 5 mM MgCl2, 0.01% human serum albumin, 0.01% Brij™-35, 2 mM dithiothreitol) to a final concentration of 0.8 nM to 0.16 nM and added to a 96-well low-binding polypropylene plate. Test compounds were diluted in DMSO to 50× concentration (final DMSO concentration in reaction mixture of 2%) and added to the wells with a concentration ranging from 300 μM to 13 nM or 30 μM to 1.5 nM. The reaction mixtures were incubated for 30 minutes at 25° C. and a solution of annealed dsDNA oligonucleotide (5′-[…]-3′ and Comp: 5′-[…]-3′) was added to a final concentration of 50 nM. The reaction mixtures were incubated at 25° C. for 5-15 minutes and subsequently quenched by transferring part of the assay reaction to a solution of 100 mM ethylenediaminetetraacetic acid and 1:100 Picogreen™ (final concentration of […]) in a black plate with an opaque bottom. The fluorescence ([…]) was measured using a Molecular Devices SpectraMax plate reader. Wells containing oligonucleotide but no TREX1 enzyme were used as negative controls. Wells containing oligonucleotide, TREX1 enzyme, and DMSO were used as positive controls.

Compound | IC50
COc1cc(-c2nc3ccccc3n2C2COC2)c(C)c(O)c1O [Example 1, 6-methoxy-3-methyl-4-(1-(oxetan-3-yl)-1H-benzo[d]imidazol-2-yl)benzene-1,2-diol] | 10 to 100 µM
O=C(O)c1cc(-c2nc3ccccc3n2C2COC2)ccc1O [Example 3, 2-hydroxy-5-(1-(oxetan-3-yl)-1H-benzo[d]imidazol-2-yl)benzoic acid] | > 100 µM
COc1cc(-c2nc3ccccc3n2C2COC2)cc(O)c1O [Example 11, 3-methoxy-5-(1-(oxetan-3-yl)-1H-benzo[d]imidazol-2-yl)benzene-1,2-diol] | 10 to 100 µM
COc1cc(-c2nc3ccccc3n2C2CCOC2)cc(O)c1O (stereo not shown) [Example 13, 3-methoxy-5-(1-(tetrahydrofuran-3-yl)-1H-benzo[d]imidazol-2-yl)benzene-1,2-diol] | 10 to 100 µM
COCCn1c(-c2cc(O)c(O)c(OC)c2)nc2ccccc21 [Example 15, 3-methoxy-5-(1-(2-methoxyethyl)-1H-benzo[d]imidazol-2-yl)benzene-1,2-diol] | > 100 µM
COc1cc(-c2nc3cc(N4CCN(C(=O)CCCC[C@@H]5SC[C@@H]6NC(=O)N[C@@H]65)CC4)ccc3[nH]2)cc(O)c1O [Example 23, (3aS,4S,6aR)-4-(5-(4-(2-(3,4-dihydroxy-5-methoxyphenyl)-1H-benzo[d]imidazol-5-yl)piperazin-1-yl)-5-oxopentyl)tetrahydro-1H-thieno[3,4-d]imidazol-2(3H)-one] | 1 to 10 µM
COc1cc(-c2nc3cc(N4CCN(C(C)=O)CC4)ccc3n2C(C)=O)cc(O)c1O [Example 27, 1-(4-(1-acetyl-2-(3,4-dihydroxy-5-methoxyphenyl)-1H-benzo[d]imidazol-5-yl)piperazin-1-yl)ethanone] | 10 to 100 µM
COc1cc(-c2nc3cc(N4CCC4)ccc3n2C2CCOC2)cc(C(=O)O)c1O (stereo not shown) [Example 28, 5-(5-(azetidin-1-yl)-1-(tetrahydrofuran-3-yl)-1H-benzo[d]imidazol-2-yl)-2-hydroxy-3-methoxybenzoic acid] | 10 to 100 µM
CCn1c(-c2cc(O)c(O)c(OC(C)C)c2)nc2cccnc21 [Example 29, 5-(3-ethyl-3H-imidazo[4,5-b]pyridin-2-yl)-3-isopropoxybenzene-1,2-diol] | > 100 µM
COc1cc(-c2nc3cc(N4CCN(C(=O)c5ccccc5)CC4)ccc3[nH]2)c(C(F)(F)F)c(O)c1O [Example 30, (4-(2-(3,4-dihydroxy-5-methoxy-2-(trifluoromethyl)phenyl)-1H-benzo[d]imidazol-5-yl)piperazin-1-yl)(phenyl)methanone] | 10 to 100 µM
COc1cc(-c2nc3cc(N4CCN(C(=O)c5ccccc5)CC4)ccc3[nH]2)cc(O)c1O [Example 31, (4-(2-(3,4-dihydroxy-5-methoxyphenyl)-1H-benzo[d]imidazol-5-yl)piperazin-1-yl)(phenyl)methanone] | 1 to 10 µM
C=CCCC(=O)N1CCN(c2ccc3[nH]c(-c4cc(O)c(O)c(OC)c4)nc3c2)CC1 [Example 33, 1-(4-(2-(3,4-dihydroxy-5-methoxyphenyl)-1H-benzo[d]imidazol-5-yl)piperazin-1-yl)pent-4-en-1-one] | 10 to 100 µM
C=CCCC(=O)N1CCN(c2ccc3c(c2)nc(-c2cc(O)c(O)c(OC)c2)n3C(=O)CCC=C)CC1 [Example 34, 1-(4-(2-(3,4-dihydroxy-5-methoxyphenyl)-1-(pent-4-enoyl)-1H-benzo[d]imidazol-5-yl)piperazin-1-yl)pent-4-en-1-one] | 10 to 100 µM

The next lines start with the values.

IC50 | Compound
10 to 100 µM | O=C(O)c1ccc(-c2nc3ccncc3[nH]2)cc1O [Example 2, 2-hydroxy-4-(3H-imidazo[4,5-c]pyridin-2-yl)benzoic acid]
1 to 10 µM | COc1cc(-c2nc3cc(N4CCC4)ccc3[nH]2)cc(O)c1O [Example 4, 5-(5-(azetidin-1-yl)-1H-benzo[d]imidazol-2-yl)-3-methoxybenzene-1,2-diol]
1 to 10 µM | COc1cc(-c2nc3ccncc3[nH]2)cc(C(=O)O)c1O [Example 5, 2-hydroxy-5-(3H-imidazo[4,5-c]pyridin-2-yl)-3-methoxybenzoic acid]
1 to 10 µM | COc1cc(-c2nc3cc(N4CCC4)ccc3[nH]2)cc(C(=O)O)c1O [Example 6, 5-[6-(azetidin-1-yl)-1H-benzimidazol-2-yl]-2-hydroxy-3-methoxybenzoic acid]
> 100 µM | COc1cc(-c2nc3ccccc3[nH]2)cc(O)c1O [Example 9, 5-(1H-benzo[d]imidazol-2-yl)-3-methoxybenzene-1,2-diol]
> 100 µM | COc1cc(-c2nc3ccccc3n2C)cc(O)c1O [Example 10, 3-methoxy-5-(1-methyl-1H-benzo[d]imidazol-2-yl)benzene-1,2-diol]
10 to 100 µM | COc1cc(-c2nc3ccncc3[nH]2)cc(O)c1O [Example 12, 5-(3H-imidazo[4,5-c]pyridin-2-yl)-3-methoxybenzene-1,2-diol]
> 100 µM | COc1cc(-c2nc3cnncc3[nH]2)cc(O)c1O [Example 14, 5-(1H-imidazo[4,5-d]pyridazin-2-yl)-3-methoxybenzene-1,2-diol]
> 100 µM | COc1c(C)c(-c2nc3ccccc3[nH]2)cc(O)c1O [Example 16, 5-(1H-benzo[d]imidazol-2-yl)-3-methoxy-4-methylbenzene-1,2-diol]
> 100 µM | COc1cc(-c2nc3ccccc3[nH]2)c(C)c(O)c1O [Example 17, 4-(1H-benzo[d]imidazol-2-yl)-6-methoxy-3-methylbenzene-1,2-diol]
> 100 µM | COc1cc(-c2nc3cc(N4CCNCC4)ccc3[nH]2)cc(O)c1O [Example 18, 3-methoxy-5-(5-(piperazin-1-yl)-1H-benzo[d]imidazol-2-yl)benzene-1,2-diol]
> 100 µM | COc1cc(-c2nc3cc(S(=O)(=O)Nc4ccccc4)ccc3[nH]2)cc(O)c1O [Example 19, 2-(3,4-dihydroxy-5-methoxyphenyl)-N-phenyl-1H-benzo[d]imidazole-5-sulfonamide]
> 100 µM | CNS(=O)(=O)c1ccc2[nH]c(-c3cc(O)c(O)c(OC)c3)nc2c1 [Example 20, 2-(3,4-dihydroxy-5-methoxyphenyl)-N-methyl-1H-benzo[d]imidazole-5-sulfonamide]
> 100 µM | COc1cc(-c2nc3c(C)cccc3[nH]2)cc(O)c1O [Example 21, 3-methoxy-5-(4-methyl-1H-benzo[d]imidazol-2-yl)benzene-1,2-diol]
> 100 µM | COc1cc(-c2nc3cc(N4CCN(C)CC4)ccc3[nH]2)cc(O)c1O [Example 24, 3-methoxy-5-(5-(4-methylpiperazin-1-yl)-1H-benzo[d]imidazol-2-yl)benzene-1,2-diol]
> 100 µM | COc1cc(-c2nc3cc(N4CCOCC4)ccc3[nH]2)cc(O)c1O [Example 25, 3-methoxy-5-(5-morpholino-1H-benzo[d]imidazol-2-yl)benzene-1,2-diol]
> 100 µM | COc1cc(-c2nc3cc(N4CCN(C(C)=O)CC4)ccc3[nH]2)cc(O)c1O [Example 26, 1-(4-(2-(3,4-dihydroxy-5-methoxyphenyl)-1H-benzo[d]imidazol-5-yl)piperazin-1-yl)ethanone]
10 to 100 µM | COc1cc(-c2nc3cc(N4CCN(C(=O)c5cccnc5)CC4)ccc3[nH]2)cc(O)c1O [Example 32, (4-(2-(3,4-dihydroxy-5-methoxyphenyl)-1H-benzo[d]imidazol-5-yl)piperazin-1-yl)(pyridin-3-yl)methanone]
